Source: patent US12156857B2, “Composition for promoting ketone body production” (Meiji Co., Ltd., priority 2016, dated 2024)

What was measured:
Assay type in all cases: in vivo, Male Wistar rats
ketone body production [1] = experiment: Selection of amino acid promoting ketone body production: blood β-hydroxybutyric acid after amino acid plus MCT feeding; details: rats, until 6 hours; for % ΔAUC (%): % relative value of area under the blood concentration-curve ΔAUC of β-hydroxybutyric acid, control group = 100 / % ΔCmax (%): % relative value of maximum blood concentration ΔCmax of β-hydroxybutyric acid, control group = 100: overnight fasting, amino acid 1.0 mmol/kg oral, then caprylic triglyceride (MCT) 3.0 g/kg oral, control water + MCT; for both % ΔCmax and % ΔAUC of β-hydroxybutyric acid compared with control group fed with water: amino acid 1.0 mmol/kg oral + MCT 3.0 g/kg oral
Method: (§1) In the following Examples, the blood β-hydroxybutyric acid concentration was measured with a β-hydroxybutyric acid measuring instrument for self-inspection (Precision Xceed manufactured by Abbott).
In the following Examples, the promotion of ketone body production was evaluated as follows. Specifically, blood was collected from the caudal vein of rats under fasting to measure the blood concentration (mmol/L) of β-hydroxybutyric acid (bHB) as an index of the ketone body in the blood. The measured value was defined as an initial value (0 hours). The rats were grouped into a control group and an experimental group, and fed with test samples. Thereafter, the transition of the blood bHB concentration until after 6 hours from the initial value was graphed. A reference view for determining the maximum blood concentration (Cmax) and area under the blood concentration-curve (AUC) of bHB is shown in FIG. 1A. A value obtained by subtracting the measured value at the initial value (0 hours) from the measured value at the time of each measurement was calculated, and defined as an amount of change in blood β-hydroxybutyric acid concentration (ΔbHB concentration) (FIG. 1B). Then, for the amount of change in blood β-hydroxybutyric acid concentration (ΔbHB concentration), the maximum blood concentration (ΔCmax) and area under the blood concentration-curve (ΔAUC) until after 6 hours from the initial value (0 hours) were calculated (FIG. 1B).
A % relative value (% ΔCmax (%)) of the maximum blood concentration ΔCmax of β-hydroxybutyric acid for the experimental group when the maximum blood concentration ΔCmax of β-hydroxybutyric acid for the control group was assumed to be 100 was determined according to the following calculation formula.
A % relative value (% ΔAUC (%)) of the area under the blood concentration-curve ΔAUC of blood β-hydroxybutyric acid for the experimental group when the area under the blood concentration-curve ΔAUC of blood β-hydroxybutyric acid for the control group was assumed to be 100 was determined according to the following calculation formula.
Male Wistar rats (obtained from Japan SLC, Inc.) were acclimated for one week and then used for testing. Blood was collected from the caudal vein of the rats under overnight fasting to measure the blood concentration (mmol/L) of β-hydroxybutyric acid (bHB) as an index of the ketone body in the blood. The rats were grouped (n=8 for each group) so that the averages of the body weights and the β-hydroxybutyric acid concentrations for the respective groups were as equal as possible. Then, water was orally fed in an amount of 10 mL/kg of the body weight to the control group, and aqueous solutions of various amino acids (manufactured by Wako Pure Chemical Industries, Ltd.) were orally fed in an amount of 1.0 mmol/kg of the body weight to the experimental group. Immediately after feeding of water or each of the aqueous amino acid solutions, caprylic triglyceride (manufactured by Tokyo Chemical Industry Co., Ltd.), which is medium-chain fatty acid oil and fat (MCT), was orally fed in an amount of 3.0 g/kg of the body weight to the groups. Blood was collected from the caudal vein 1, 2, 3, 4, 5, and 6 hours after feeding of MCT to measure the blood β-hydroxybutyric acid concentration.

ketone body production [2] = experiment: Effect of citrulline or leucine on ketone body production in feeding of medium-chain fatty acid oil and fat; details: rats, four-hour fasting; amino acid 1.5 mmol/kg oral + caprylic triglyceride (MCT) 4.5 g/kg oral; until 6 hours
Method: as §1
(§2) In the following Examples, the promotion of ketone body production was evaluated as follows. Specifically, blood was collected from the caudal vein of rats under fasting to measure the blood concentration (mmol/L) of β-hydroxybutyric acid (bHB) as an index of the ketone body in the blood. The measured value was defined as an initial value (0 hours). The rats were grouped into a control group and an experimental group, and fed with test samples. Thereafter, the transition of the blood bHB concentration until after 6 hours from the initial value was graphed. […] A value obtained by subtracting the measured value at the initial value (0 hours) from the measured value at the time of each measurement was calculated, and defined as an amount of change in blood β-hydroxybutyric acid concentration (ΔbHB concentration) (FIG. 1B). Then, for the amount of change in blood β-hydroxybutyric acid concentration (ΔbHB concentration), the maximum blood concentration (ΔCmax) and area under the blood concentration-curve (ΔAUC) until after 6 hours from the initial value (0 hours) were calculated (FIG. 1B). […]

ketone body production [3] = experiment: Effect of citrulline amount on ketone body production in feeding of medium-chain fatty acid oil and fat; details: rats, four-hour fasting; citrulline 1.5, 2.25 or 3.0 mmol/kg + MCT 4.5 g/kg oral constant; until 6 hours
Method: as §1, §2

| Structure (SMILES) | % ΔAUC (%): % relative value of area under the blood concentration-curve ΔAUC of β-hydroxybutyric acid, control group = 100 (ketone body production [1]) [%] | % ΔCmax (%): % relative value of maximum blood concentration ΔCmax of β-hydroxybutyric acid, control group = 100 (ketone body production [1]) [%] | both % ΔCmax and % ΔAUC of β-hydroxybutyric acid compared with control group fed with water (ketone body production [1]) | ketone body production compared with MCT fed alone (ΔbHB, ΔAUC, ΔCmax, FIGS. 2 to 7) (ketone body production [2]) | amount of ketone bodies produced as a function of citrulline intake amount (% ΔAUC, % ΔCmax, FIGS. 8 and 9) (ketone body production [3]) |
| --- | --- | --- | --- | --- | --- |
| CC(C)C[C@H](N)C(=O)O [Leucine (Leu), leucine] | 110.5 ± 21.1 | 130.1 ± 31.8 | higher than those for the control group | the ketone body production was promoted |  |
| N[C@@H](CS)C(=O)O [Cysteine (Cys), cysteine] | 128.3 ± 22.2 | 151.9 ± 23.8 | higher than those for the control group |  |  |
| N[C@@H](CC(=O)O)C(=O)O [Aspartic acids (Asp), aspartic acid] | 107.5 ± 30.7 | 108.8 ± 23.6 | higher than those for the control group |  |  |
| NC(=O)NCCC[C@H](N)C(=O)O [Citrulline (Cit), citrulline] | 105.4 ± 37.2 | 112.8 ± 25.5 | higher than those for the control group | the ketone body production was promoted | the amount of the ketone bodies produced varied according to the intake amount of citrulline (Cit) |
| NC(=O)CC[C@H](N)C(=O)O [Glutamine (Gln), glutamine] | 103.6 ± 30.7 | 121.2 ± 44.6 | higher than those for the control group |  |  |
| NCCS(=O)(=O)O [Taurine (Tau), taurine] | 103.6 ± 23.0 | 137.8 ± 21.8 | higher than those for the control group |  |  |
